Results: patent US20010051374A1, “HIGH […] MO[…]” (priority 1997, published 2001)

System: 293 cells
Test: Coamatic Factor VIII assay of supernatants of 293 cells infected with rAAV
Format: cell-based, human
Parameters: dose or concentration left out as unconfirmed
Conditions: etoposide added to medium of cells co-infected with rAAV-80L and rAAV-90H
Experimental: The heavy and light chain constructs, pKm201-80L and pKm201-90H, were packaged following standard procedures for the production of rAAV (Zhou et al. (1994) J. Exp. Med. 179:1867-1875). rAAV was purified as described (Wang et al. (1995) Proc. Natl. Acad. Sci. USA 92:12416-12420) and used to infect 293 cells plated in 6-well plates. Supernatants of infected cells were collected 48 h after infection and assayed for biologically active factor VIII by Coamatic Factor VIII (KabiVitrum, Stockholm), following the manufacturer's instructions. Normal human plasma (George King Bio-Medical, Inc., Overland Park, Kans.) was used to generate a standard curve. Cells were infected at a multiplicity of infection (MOI) of 6000 rAAV particles per cell. The experiment was done both with and without the addition of etoposide ([…]) to the medium. […] The amount of factor VIII was increased in the presence of etoposide.

COc1cc([C@@H]2c3cc4c(cc3[C@@H](O[C@@H]3O[C@@H]5CO[C@@H](C)O[C@H]5[C@H](O)[C@H]3O)[C@H]3COC(=O)[C@H]23)OCO4)cc(OC)c1O [etoposide]
amount of factor VIII: increased
